From patent US11951094B2, “TLR2 modulator compounds, pharmaceutical compositions and uses thereof” (Axial Therapeutics, Inc., priority 2020, dated 2024)
pEC50: −log10 of the molar value. Counter-ions that a name gives are not always drawn.

Target: TLR2 (Homo sapiens, UniProt O60603)
Test: TLR2 agonist screening assay, HEK-Blue TLR2 reporter cell line (NF-kB-driven SEAP, absorbance at 600 nm)
Assay type: cell-based
Parameters: host or cells: HEK-293 (HEK-Blue TLR2 reporter cell line)
Settings: HEK-Blue TLR2 reporter cells, agonist mode
Outline: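 EC50 values come from dilution series of agonist on TLR2-transfected HEK-293 reporter cells carrying an NF-kB-SEAP construct. Cells sat overnight with compound in substrate-containing Detection medium at 1% DMSO, and secreted phosphatase activity was quantified as absorbance at 600 nm.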

Chain of TLR2 (O60603 21-784): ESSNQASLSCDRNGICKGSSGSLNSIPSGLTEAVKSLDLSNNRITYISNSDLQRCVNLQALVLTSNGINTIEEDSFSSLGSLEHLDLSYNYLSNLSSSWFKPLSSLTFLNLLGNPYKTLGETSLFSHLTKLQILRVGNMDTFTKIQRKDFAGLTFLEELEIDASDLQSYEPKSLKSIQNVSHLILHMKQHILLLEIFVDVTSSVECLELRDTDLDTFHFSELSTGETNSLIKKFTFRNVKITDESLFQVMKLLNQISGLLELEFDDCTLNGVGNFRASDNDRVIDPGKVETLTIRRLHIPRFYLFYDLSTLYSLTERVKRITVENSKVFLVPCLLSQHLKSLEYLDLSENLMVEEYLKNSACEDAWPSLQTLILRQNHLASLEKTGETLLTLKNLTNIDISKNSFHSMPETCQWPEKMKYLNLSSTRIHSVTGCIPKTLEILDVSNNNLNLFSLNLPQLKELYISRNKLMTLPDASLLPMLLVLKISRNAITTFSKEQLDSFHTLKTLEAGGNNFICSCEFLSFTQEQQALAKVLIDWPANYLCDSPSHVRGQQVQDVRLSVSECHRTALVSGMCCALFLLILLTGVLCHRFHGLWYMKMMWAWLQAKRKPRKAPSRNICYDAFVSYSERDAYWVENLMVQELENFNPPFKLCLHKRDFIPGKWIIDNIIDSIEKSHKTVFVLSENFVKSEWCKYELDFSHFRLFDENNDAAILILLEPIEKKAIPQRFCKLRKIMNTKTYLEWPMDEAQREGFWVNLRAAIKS

Row | SMILES | pEC50 (average of all runs (Table 4)) | pEC50 (average of all runs (Table 3))
1 | CCCCCCNC(=O)C1CN(C(=O)c2ccc(C(=O)N3C[C@@H](C(=O)N[C@H]4C[C@@H]4c4ccccc4)[C@H](C(=O)N[C@H]4C[C@@H]4c4ccccc4)C3)cc2)CCN1C(=O)CCCCC (stereo partly drawn) [Compound 050, (3S,4S)-1-(4-(4-hexanoyl-3-(hexylcarbamoyl)piperazine-1-carbonyl)benzoyl)-N3,N4-bis((1S,2R)-2-phenylcyclopropyl)pyrrolidine-3,4-dicarboxamide] | – | 6.46 to 7.29
2 | O=C(N[C@H]1C[C@@H]1c1ccccc1)[C@@H]1CN(C(=O)C23CCC(C(=O)N4C[C@@H](C(=O)N[C@H]5C[C@@H]5c5ccccc5)[C@H](C(=O)N[C@H]5C[C@@H]5c5ccccc5)C4)(C2)C3)C[C@H]1C(=O)N[C@H]1C[C@@H]1c1ccccc1 [Compound 144, (3S,3'S,4S,4'S)-1,1′-(bicyclo[2.1.1]hexane-1,4-dicarbonyl)bis(N3,N4-bis((1S,2R)-2-phenylcyclopropyl)pyrrolidine-3,4-dicarboxamide)] | 6.00 to 6.45 | –
3 | O=C(N[C@H]1C[C@@H]1c1ccccc1)[C@@H]1CN(C(=O)C23CC(C(=O)N4C[C@@H](C(=O)N[C@H]5C[C@@H]5c5ccccc5)[C@H](C(=O)N[C@H]5C[C@@H]5c5ccccc5)C4)(C2)C3)C[C@H]1C(=O)N[C@H]1C[C@@H]1c1ccccc1 [Compound 068] | – | < 6.00
4 | CCCCCN(CCCCC)C(=O)[C@H]1CCN(C(=O)c2ccc(C(=O)N3C[C@@H](C(=O)N[C@H]4C[C@@H]4c4ccccc4)[C@H](C(=O)N[C@H]4C[C@@H]4c4ccccc4)C3)cc2)C1 [Compound 022] | – | < 6.00
5 | O=C(N[C@H]1C[C@@H]1c1ccccc1)[C@@H]1CN(C(=O)c2ccc(C(=O)N3C[C@@H](C(=O)N[C@H]4C[C@@H]4c4ccccc4)[C@H](C(=O)N[C@@H]4C[C@H]4c4cccnc4)C3)cc2)C[C@H]1C(=O)N[C@H]1C[C@@H]1c1ccccc1 (single isomer, unassigned) [Compound 097, (3S,4S)—N3-((1S)-2-phenylcyclopropyl)-N4-(2-phenylcyclopropyl)-1-(4-((3S,4S)-3-(((1S,2R)-2-phenylcyclopropyl)carbamoyl)-4-(((1S*,2R*)-2-(pyridin-3-yl)cyclopropyl)carbamoyl)pyrrolidine-1-carbonyl)benzoyl)pyrrolidine-3,4-dicarboxamide] | 6.46 to 7.29 | –
6 | CCCCCCN(CCCCCC)C(=O)[C@H]1CCN(C(=O)c2ccc(C(=O)N3C[C@@H](C(=O)N[C@H]4C[C@@H]4c4ccccc4)[C@H](C(=O)N[C@H]4C[C@@H]4c4ccccc4)C3)cc2)C1 [Compound 009] | – | < 6.00
7 | CCCCCCCC(=O)N1CCN(S(=O)(=O)c2cccc(C(=O)N3C[C@@H](C(=O)N[C@H]4C[C@@H]4c4ccccc4)[C@H](C(=O)N[C@H]4C[C@@H]4c4ccccc4)C3)c2)C[C@@H]1C(=O)NCCCCCC [Compound 171, (3S,4S)-1-(3-(((R)-3-(hexylcarbamoyl)-4-octanoylpiperazin-1-yl)sulfonyl)benzoyl)-N3,N4-bis((1S,2R)-2-phenylcyclopropyl)pyrrolidine-3,4-dicarboxamide] | < 6.00 | –
8 | CCCCCCCCNC(=O)C1CN(C(=O)c2ccc(C(=O)N3C[C@@H](C(=O)N[C@H]4C[C@@H]4c4ccccc4)[C@H](C(=O)N[C@H]4C[C@@H]4c4ccccc4)C3)cc2)CCN1C(=O)CCCCCCC (stereo partly drawn) [Compound 065, (3S,4S)-1-(4-(4-octanoyl-3-(octylcarbamoyl)piperazine-1-carbonyl)benzoyl)-N3,N4-bis((1S,2R)-2-phenylcyclopropyl)pyrrolidine-3,4-dicarboxamide] | – | 6.46 to 7.29
9 | CCCCCCCCCCCCCCNC(=O)[C@@H]1CN(C(=O)c2ccc(C(=O)N3C[C@@H](C(=O)N[C@H]4C[C@@H]4c4ccccc4)[C@H](C(=O)N[C@H]4C[C@@H]4c4ccccc4)C3)cc2)C[C@@H]1O (single isomer, unassigned) [Compound 103, (3S,4S)-1-(4-((3R*,4R*)-3-hydroxy-4-(tetradecylcarbamoyl)pyrrolidine-1-carbonyl)benzoyl)-N3,N4-bis((1S,2R)-2-phenylcyclopropyl) pyrrolidine-3,4-dicarboxamide] | 6.00 to 6.45 | –
10 | CCCCCCCCCCCCCCNC(=O)[C@@H]1CN(Cc2ccc(C(=O)N3C[C@@H](C(=O)N[C@H]4C[C@@H]4c4ccccc4)[C@H](C(=O)N[C@H]4C[C@@H]4c4ccccc4)C3)cc2)C(=O)CN1C [Compound 093, (3S,4S)-1-(4-(((S)-4-methyl-2-oxo-5-(tetradecylcarbamoyl)piperazin-1-yl)methyl)benzoyl)-N3,N4-bis((1S,2R)-2-phenylcyclopropyl)pyrrolidine-3,4-dicarboxamide] | 6.46 to 7.29 | –
11 | CCCCCCCCN1CCN(C(=O)c2ccc(C(=O)N3C[C@@H](C(=O)N[C@H]4C[C@@H]4c4ccccc4)[C@H](C(=O)N[C@H]4C[C@@H]4c4ccccc4)C3)cc2)CC1C(=O)NCCCCCC (stereo partly drawn) [Compound 018, (3S,4S)-1-(4-(3-(hexylcarbamoyl)-4-octylpiperazine-1-carbonyl)benzoyl)-N3,N4-bis((1S,2R)-2-phenylcyclopropyl)pyrrolidine-3,4-dicarboxamide formate] | – | 6.00 to 6.45
12 | O=C(N[C@H]1C[C@@H]1c1ccccc1)[C@@H]1CN(C(=O)c2cnc(C(=O)N3C[C@@H](C(=O)N[C@H]4C[C@@H]4c4ccccc4)[C@H](C(=O)N[C@H]4C[C@@H]4c4ccccc4)C3)nc2)C[C@H]1C(=O)N[C@H]1C[C@@H]1c1ccccc1 [Compound 071, (3S,3'S,4S,4'S)-1,1′-(pyrimidine-2,5-dicarbonyl)bis(N3,N4-bis((1S,2R)-2-phenylcyclopropyl)pyrrolidine-3,4-dicarboxamide)] | – | 6.46 to 7.29
13 | CCCCCCCCCCCCCCNC(=O)[C@@H]1CN(C(=O)c2cccc(C(=O)N3C[C@@H](C(=O)N[C@H]4C[C@@H]4c4ccccc4)[C@H](C(=O)N[C@H]4C[C@@H]4c4ccccc4)C3)c2)CCN1C(C)=O [Compound 164, (3S,4S)-1-(3-((S)-4-acetyl-3-(tetradecylcarbamoyl)piperazine-1-carbonyl)benzoyl)-N3,N4-bis ((1S,2R)-2-phenylcyclopropyl) pyrrolidine-3,4-dicarboxamide] | < 6.00 | –
14 | CCCCCCCCCCCCCCC(=O)N1CCC[C@@H](NC(=O)c2ccc(C(=O)N3C[C@@H](C(=O)N[C@H]4C[C@@H]4c4ccccc4)[C@H](C(=O)N[C@H]4C[C@@H]4c4ccccc4)C3)cc2)C1 [Compound 153, (3S,4S)-1-(4-(((R)-1-pentadecanoylpiperidin-3-yl)carbamoyl)benzoyl)-N3,N4-bis((1S,2R)-2-phenylcyclopropyl)pyrrolidine-3,4-dicarboxamide] | < 6.00 | –

Other lines, results leading:

Row | pEC50 (average of all runs (Table 4)) | pEC50 (average of all runs (Table 3)) | SMILES
15 | < 6.00 | – | CCCCCCCCCC(=O)N[C@@H](CNc1nc2ccc(C(=O)N3C[C@@H](C(=O)N[C@H]4C[C@@H]4c4ccccc4)[C@H](C(=O)N[C@H]4C[C@@H]4c4ccccc4)C3)cc2s1)C(=O)NCCCCCC [Compound 262, (3S,4S)-1-(2-(((S)-2-decanamido-3-(hexylamino)-3-oxopropyl)amino)benzo[d]thiazole-6-carbonyl)-N3,N4-bis((1S,2R)-2-phenylcyclopropyl)pyrrolidine-3,4-dicarboxamide]
16 | < 6.00 | – | CCCCCCCCCCCCCNC(=O)N[C@H]1CN(c2nc3cc(C(=O)N4C[C@@H](C(=O)N[C@H]5C[C@@H]5c5ccccc5)[C@H](C(=O)N[C@H]5C[C@@H]5c5ccccc5)C4)ccc3o2)C[C@@H]1OC [Compound 245, (3S,4S)-1-(2-((3S,4S)-3-methoxy-4-(3-tridecylureido)pyrrolidin-1-yl)benzo[d]oxazole-5-carbonyl)-N3,N4-bis((1S,2R)-2-phenylcyclopropyl)pyrrolidine-3,4-dicarboxamide]
17 | < 6.00 | – | CCCCCCCCCCCNC(=O)[C@@H]1CN(C(=O)c2ccc(C(=O)N3C[C@@H](C(=O)N[C@H]4C[C@@H]4c4ccccc4)[C@H](C(=O)N[C@H]4C[C@@H]4c4ccccc4)C3)cc2)CCN1C(C)=O [Compound 256, (3S,4S)-1-(4-((S)-4-acetyl-3-(undecylcarbamoyl)piperazine-1-carbonyl)benzoyl)-N3,N4-bis((1S,2R)-2-phenylcyclopropyl) pyrrolidine-3,4-dicarboxamide]
18 | 7.30 to 10.00 | – | CCCCCCCCCCCCNC(=O)N[C@H]1CN(C(c2ccc(C(=O)N3C[C@@H](C(=O)N[C@H]4C[C@@H]4c4ccccc4)[C@H](C(=O)N[C@H]4C[C@@H]4c4ccccc4)C3)cc2)C(F)(F)F)C[C@@H]1OC (single isomer, unassigned) [Compound 233, (3S,4S)-1-(4-((S*)-1-((3S,4S)-3-(3-dodecylureido)-4-methoxypyrrolidin-1-yl)-2,2,2-trifluoroethyl)benzoyl)-N3,N4-bis((1S,2R)-2-phenylcyclopropyl)pyrrolidine-3,4-dicarboxamide]
19 | 7.30 to 10.00 | – | CCCCCCCCCCCCCNC(=O)N[C@@H]1CN(C(=O)c2ccc(C(=O)N3C[C@@H](C(=O)N[C@H]4C[C@@H]4c4ccccc4)[C@H](C(=O)N[C@H]4C[C@@H]4c4ccccc4)C3)cc2)C[C@@H]1OC [Compound 208, (3S,4S)-1-(4-((3S,4R)-3-methoxy-4-(3-tridecylureido)pyrrolidine-1-carbonyl)benzoyl)-N3,N4-bis((1S,2R)-2-phenylcyclopropyl)pyrrolidine-3,4-dicarboxamide]
20 | < 6.00 | – | CCCCCCNC(=O)[C@H](CNC(=O)c1ccc(C(=O)N2C[C@@H](C(=O)N[C@H]3C[C@@H]3c3ccccc3)[C@H](C(=O)N[C@H]3C[C@@H]3c3ccccc3)C2)cc1)NC(=O)OCCCCCC [Compound 226, hexyl ((S)-3-(4-((3S,4S)-3,4-bis(((1S,2R)-2-phenylcyclopropyl)carbamoyl)pyrrolidine-1-carbonyl)benzamido)-1-(hexylamino)-1-oxopropan-2-yl)carbamate]
21 | 7.30 to 10.00 | – | CCCCCCCCCNC(=O)[C@H](CNC(=O)c1ccc(C(=O)N2C[C@@H](C(=O)N[C@H]3C[C@@H]3c3ccccc3)[C@H](C(=O)N[C@H]3C[C@@H]3c3ccccc3)C2)cc1)NC(=O)CCCCCCCCC [Compound 207, (3S,4S)-1-(4-(((S)-2-decanamido-3-(nonylamino)-3-oxopropyl)carbamoyl)benzoyl)-N3,N4-bis((1S,2R)-2-phenylcyclopropyl)pyrrolidine-3,4-dicarboxamide]
